Test: xn = mol fraction of the nth substance listed
Conditions: Liquid, Vibrating tube method

CCCCCCCCCC [decane] + CCO
Conditions	mass density [kg/m3]
332.86 K, 16000 kPa, x2 = 0.0937	713.17
332.86 K, 16000 kPa, x2 = 0.9014	751.15
332.86 K, 17000 kPa, x2 = 0.0937	714.01
332.86 K, 17000 kPa, x2 = 0.9014	752.07
332.86 K, 18000 kPa, x2 = 0.0937	714.82
332.86 K, 18000 kPa, x2 = 0.9014	752.96
332.86 K, 19000 kPa, x2 = 0.0937	715.64
332.86 K, 19000 kPa, x2 = 0.9014	753.84
332.86 K, 20000 kPa, x2 = 0.0937	716.42
332.86 K, 20000 kPa, x2 = 0.9014	754.71
332.87 K, 1000 kPa, x2 = 0.1011	699.31
332.87 K, 1000 kPa, x2 = 0.4963	707.52
332.87 K, 2000 kPa, x2 = 0.1011	700.32
332.87 K, 2000 kPa, x2 = 0.4963	708.54
332.87 K, 3000 kPa, x2 = 0.1011	701.31
332.87 K, 3000 kPa, x2 = 0.4963	709.55
332.87 K, 4000 kPa, x2 = 0.1011	702.29
332.87 K, 4000 kPa, x2 = 0.4963	710.55
332.87 K, 5000 kPa, x2 = 0.1011	703.26
332.87 K, 5000 kPa, x2 = 0.4963	711.53
332.87 K, 6000 kPa, x2 = 0.1011	704.21
332.87 K, 6000 kPa, x2 = 0.4963	712.5
332.87 K, 7000 kPa, x2 = 0.1011	705.15
332.87 K, 7000 kPa, x2 = 0.4963	713.48
332.87 K, 8000 kPa, x2 = 0.1011	706.08
332.87 K, 8000 kPa, x2 = 0.4963	714.46
332.87 K, 9000 kPa, x2 = 0.1011	707
332.87 K, 9000 kPa, x2 = 0.4963	715.43
332.87 K, 10000 kPa, x2 = 0.1011	707.91
332.87 K, 10000 kPa, x2 = 0.4963	716.38
332.87 K, 11000 kPa, x2 = 0.1011	708.83
332.87 K, 11000 kPa, x2 = 0.4963	717.33
332.87 K, 12000 kPa, x2 = 0.1011	709.73
332.87 K, 12000 kPa, x2 = 0.4963	718.27
332.87 K, 13000 kPa, x2 = 0.1011	710.62
332.87 K, 13000 kPa, x2 = 0.4963	719.21
332.87 K, 14000 kPa, x2 = 0.1011	711.51
332.87 K, 14000 kPa, x2 = 0.4963	720.13
332.87 K, 15000 kPa, x2 = 0.1011	712.38
332.87 K, 15000 kPa, x2 = 0.4963	721.03
332.87 K, 16000 kPa, x2 = 0.1011	713.23
332.87 K, 16000 kPa, x2 = 0.4963	721.92
332.87 K, 17000 kPa, x2 = 0.1011	714.07
332.87 K, 17000 kPa, x2 = 0.4963	722.8
332.87 K, 18000 kPa, x2 = 0.1011	714.88
332.87 K, 18000 kPa, x2 = 0.4963	723.66
332.87 K, 19000 kPa, x2 = 0.1011	715.69
332.87 K, 19000 kPa, x2 = 0.4963	724.5
332.87 K, 20000 kPa, x2 = 0.1011	716.47
332.87 K, 20000 kPa, x2 = 0.4963	725.32
332.91 K, 1000 kPa, x2 = 0.7526	720.88
332.91 K, 2000 kPa, x2 = 0.7526	721.93
332.91 K, 3000 kPa, x2 = 0.7526	722.96
332.91 K, 4000 kPa, x2 = 0.7526	723.98
332.91 K, 5000 kPa, x2 = 0.7526	725
332.91 K, 6000 kPa, x2 = 0.7526	726.01
332.91 K, 7000 kPa, x2 = 0.7526	727.02
332.91 K, 8000 kPa, x2 = 0.7526	728.03
332.91 K, 9000 kPa, x2 = 0.7526	729.03
332.91 K, 10000 kPa, x2 = 0.7526	729.99
332.91 K, 11000 kPa, x2 = 0.7526	730.98
332.91 K, 12000 kPa, x2 = 0.7526	731.94
332.91 K, 13000 kPa, x2 = 0.7526	732.91
332.91 K, 14000 kPa, x2 = 0.7526	733.85
332.91 K, 15000 kPa, x2 = 0.7526	734.78
332.91 K, 16000 kPa, x2 = 0.7526	735.69
332.91 K, 17000 kPa, x2 = 0.7526	736.6
332.91 K, 18000 kPa, x2 = 0.7526	737.48
332.91 K, 19000 kPa, x2 = 0.7526	738.35
332.91 K, 20000 kPa, x2 = 0.7526	739.19
332.97 K, 1000 kPa, x2 = 0.2507	701.45
332.97 K, 2000 kPa, x2 = 0.2507	702.46
332.97 K, 3000 kPa, x2 = 0.2507	703.46
332.97 K, 4000 kPa, x2 = 0.2507	704.44
332.97 K, 5000 kPa, x2 = 0.2507	705.41
332.97 K, 6000 kPa, x2 = 0.2507	706.36
332.97 K, 7000 kPa, x2 = 0.2507	707.31
332.97 K, 8000 kPa, x2 = 0.2507	708.26
332.97 K, 9000 kPa, x2 = 0.2507	709.21
332.97 K, 10000 kPa, x2 = 0.2507	710.12
332.97 K, 11000 kPa, x2 = 0.2507	711.06
332.97 K, 12000 kPa, x2 = 0.2507	711.97
332.97 K, 13000 kPa, x2 = 0.2507	712.88
332.97 K, 14000 kPa, x2 = 0.2507	713.78
332.97 K, 15000 kPa, x2 = 0.2507	714.65
332.97 K, 16000 kPa, x2 = 0.2507	715.53
332.97 K, 17000 kPa, x2 = 0.2507	716.38
332.97 K, 18000 kPa, x2 = 0.2507	717.21
332.97 K, 19000 kPa, x2 = 0.2507	718.03
332.97 K, 20000 kPa, x2 = 0.2507	718.82

— the NIST ThermoML archive (doi:10.1016/j.jct.2012.06.012)
